Patent publication US10617664B2, “Brain derived PPARα ligands” (Rush University Medical Center, priority 2015, dated 2020)

What was measured:
Type in all cases: cell-based, mouse
[1] = test system: PPRE-driven luciferase activity; assay: PPRE-luciferase assay in Ppara-null hippocampal neurons transduced with Ppara constructs
Description: Astrocytes plated at 60-70% confluence were transfected with tk-PPREx3-Luc, a PPRE-dependent luciferase reporter construct. After 24 h of transfection, cells were treated with different concentrations of HEX (FIG. 10A), OCT (FIG. 10B) and HMB (FIG. 10C) for 4 h followed by monitoring luciferase activity. Under similar experimental condition, MTT was performed to understand the effect of these ligands on cell viability (FIG. 10D, HEX; FIG. 10E, OCT; FIG. 10F, HMB). Results are mean±SD of three independent experiments. ^ap<0.001 vs. control. Ppara-null astrocytes were transduced with lentivirions containing empty vector (FIG. 10G), FL-Ppara (FIG. 10H), Y314D-Ppara (FIG. 10I), Y464D-Ppara (FIG. 10J), and Y314D/Y464D-Ppara (FIG. 10K) for 48 h followed by transfection with tk-PPREx3-Luc. After 24 h of transfection, cells were treated with different doses of HEX, OCT and HMB for 4 h followed by monitoring luciferase activity. PPRE luciferase activity was assayed in Ppara-null astrocytes transduced with lentivirions containing empty vector (FIG. 10L), FL-Ppara (FIG. 10M), Y314D-Ppara (FIG. 10N), Y464D-Ppara (FIG. 10O), and Y314D/Y464D-Ppara (FIG. 10P) after treatment with different doses of WY14643, fenofibrate, and clofibrate. PPRE luciferase activity was assayed in primary hippocampal neurons transduced with lentivirions containing empty vector (FIG. 10Q), FL-Ppara (FIG. 10R), Y314D-Ppara (FIG. 10S), Y464D-Ppara (FIG. 10T), and Y314D/Y464D-Ppara (FIG. 10U) after treatment with different doses of HEX, OCT and HMB. Results are mean±SD of three independent experiments. ^ap<0.001 vs. control.
Isolation of Mouse Hippocampal Neurons: Hippocampal neurons were isolated from fetuses (E18) of pregnant female Ppara-null and strain-matched WT littermate mice as described by us^6,13,35-36 with some modifications. Briefly, dissection and isolation procedures were performed in an ice-cold, sucrose buffer solution (sucrose 0.32 M, Tris 0.025 M; pH 7.4)^37. The skin and the skull were carefully removed from the brain by scissors followed by peeling off the meninges by a pair of fine tweezers. Next, a fine incision was made in the middle line around the circle of Willis and medial temporal lobe was opened up. Hippocampus was isolated as a thin slice of tissue located near the cortical edge of medial temporal lobe. Hippocampal tissues isolated from all fetal pups (n>10) were combined together and homogenized with 1 ml of trypsin for 5 minutes at 37° C. followed by neutralization of trypsin. The single cell suspension of hippocampal tissue was plated in the poly-D-lysine pre-coated 75 mm flask. Five min after plating, the supernatants were carefully removed and replaced with complete neurobasal media. The next day, 10 μM AraC was added to remove glial contamination in the neuronal culture. The pure cultures of hippocampal neurons were allowed to differentiate fully for 9-10 days before treatment^35,36,38.

[2] = test system: AMPA-driven calcium influx; assay: AMPA-driven calcium influx in transduced Ppara-null hippocampal neurons
Description: (§1) Ppara-null hippocampal neurons were transduced with lentivirions containing GFP (vector), FL-Ppara, and Y464D-Ppara for 48 h followed by treatment with vehicle (DMSO) (FIG. 11A), OCT (FIG. 11B), HEX (FIG. 11C), HMB (FIG. 11D), and WY14643 (FIG. 11E) for 24 h. Then neurons were stained for phalloidin to measure spine density. FIG. 11F) A representative picture of dendrite with spines (Cyan color) used for counting area of spine heads. Area of spine heads (FIG. 11G) and number of spines (FIG. 11H) in 10 μm of dendrites. Results are mean±SEM of 5 neurons per group. ^ap<0.05 vs vector only; ^bp<0.05 vs FL-Ppara. AMPA-driven calcium influx was measured in OCT (red), HEX (green) and HMB (purple)-treated Ppara-null hippocampal neurons transduced with lentivirions containing FL-Ppara (FIG. 11I), Y314D-Ppara (FIG. 11J), Y464D-Ppara (FIG. 11K), and Y314D/Y464D-Ppara (FIG. 11L). All neurons were treated with 50 μM of NMDA receptor antagonist N20C to inhibit passive calcium flow through NMDA receptor. (FIG. 11M-P) Similarly NMDA-driven calcium influx was measured in the lentivius-infected Ppara-null hippocampal neurons in the presence of different endogenous ligands. In these cases, Naspm-HCl was treated to stop the passive flow of calcium currents through AMPA receptor. Results are mean of three independent experiments.

[3] = test system: Ppara-null hippocampal neurons; assay: Dendritic spine density (phalloidin) in transduced Ppara-null hippocampal neurons; conditions: lenti-FL-Ppara
Description: as §1
Dendritic spines are the crucial mediators of synaptic transmission among central neurons and often serve as a primary candidate for the long term morphological substrates of neuronal plasticity^12,13. Therefore, the effect of these ligands on the increase of spine density in cultured hippocampal neurons was studied. Briefly, mouse Ppara-null hippocampal neurons were transduced with lentivirus containing empty vector, FL-Ppara, or Y464D-Ppara for a week followed by the treatment with OCT, HEX, and HMB for four more days. After that, neurons were labelled with phalloidin to monitor the spine density. […] This observation was further validated by measuring the area of spine heads (FIG. 11F-G) and number of spines (FIG. 11H) in HEX, OCT, and HMB-treated Ppara-null neurons. HEX (FIG. 17G-H), OCT (FIG. 17I-J) and HMB (FIG. 17K-L) stimulated the expression of CREB in Ppara-null hippocampal neurons that were transduced with lentivirons containing the FL-Ppara gene.
Hippocampal regions were dissected from 18-day-old embryonic fetus as described elsewhere (PMID: 25007337), combined and plated in poly-D-lysine coated plate for another 2-3 weeks for branching. After that, these neurons were transduced with GFP-containing lentivirions for 2 d. Neurons were stained with Dylight-554-conjugated phalloidin (Cat #21834; Thermofisher) as per manufactures protocol and visualized in fluorescence microscope. […]

Compound	PPRE-luciferase activity ([1]; lenti-Y314D/Y464D-Ppara)	PPRE-luciferase activity ([1]; lenti-Y464D-Ppara)	AMPA-mediated calcium influx ([2]; lenti-FL-Ppara)	AMPA-mediated calcium influx ([2]; lenti-Y314D-Ppara)	AMPA-mediated calcium influx ([2]; lenti-Y314D/Y464D-Ppara)	AMPA-mediated calcium influx ([2]; lenti-Y464D-Ppara)	density of spines [3]
CCCCCCCCCCCCCCCC(N)=O [HEX, hexadecanamide]	completely abrogated	completely abrogated	stimulated	partially restore	remained unable to increase	remained unable to increase	stimulated
CCOC(=O)C(C)(C)C(C)O (stereo not drawn) [HMB]	completely abrogated	completely abrogated	stimulated	partially restore	remained unable to increase	remained unable to increase	stimulated
CCCCCCCCC=CCCCCCCCC(N)=O [OCT, 9-octadecenamide]	completely abrogated	completely abrogated	stimulated	partially restore	remained unable to increase	remained unable to increase	stimulated
